Assay results published in patent US11739098B2 (BRISTOL-MYERS SQUIBB COMPANY, priority 2017, dated 2023).

Key:
Assay type in all cases: cell-based
[1] = molecular target: T1, human TLR7 (Homo sapiens, UniProt Q9NYK1); experiment: TLR7 inhibition reporter assay (HEK-Blue cells, SEAP reporter, gardiquimod stimulation); conditions: HEK-Blue cells overexpressing human TLR7, SEAP reporter, gardiquimod 7.5 μM
T1 construct: host or cells: HEK-Blue cells (HEK293-derived reporter line)
T1 sequence (Q9NYK1 27-1049): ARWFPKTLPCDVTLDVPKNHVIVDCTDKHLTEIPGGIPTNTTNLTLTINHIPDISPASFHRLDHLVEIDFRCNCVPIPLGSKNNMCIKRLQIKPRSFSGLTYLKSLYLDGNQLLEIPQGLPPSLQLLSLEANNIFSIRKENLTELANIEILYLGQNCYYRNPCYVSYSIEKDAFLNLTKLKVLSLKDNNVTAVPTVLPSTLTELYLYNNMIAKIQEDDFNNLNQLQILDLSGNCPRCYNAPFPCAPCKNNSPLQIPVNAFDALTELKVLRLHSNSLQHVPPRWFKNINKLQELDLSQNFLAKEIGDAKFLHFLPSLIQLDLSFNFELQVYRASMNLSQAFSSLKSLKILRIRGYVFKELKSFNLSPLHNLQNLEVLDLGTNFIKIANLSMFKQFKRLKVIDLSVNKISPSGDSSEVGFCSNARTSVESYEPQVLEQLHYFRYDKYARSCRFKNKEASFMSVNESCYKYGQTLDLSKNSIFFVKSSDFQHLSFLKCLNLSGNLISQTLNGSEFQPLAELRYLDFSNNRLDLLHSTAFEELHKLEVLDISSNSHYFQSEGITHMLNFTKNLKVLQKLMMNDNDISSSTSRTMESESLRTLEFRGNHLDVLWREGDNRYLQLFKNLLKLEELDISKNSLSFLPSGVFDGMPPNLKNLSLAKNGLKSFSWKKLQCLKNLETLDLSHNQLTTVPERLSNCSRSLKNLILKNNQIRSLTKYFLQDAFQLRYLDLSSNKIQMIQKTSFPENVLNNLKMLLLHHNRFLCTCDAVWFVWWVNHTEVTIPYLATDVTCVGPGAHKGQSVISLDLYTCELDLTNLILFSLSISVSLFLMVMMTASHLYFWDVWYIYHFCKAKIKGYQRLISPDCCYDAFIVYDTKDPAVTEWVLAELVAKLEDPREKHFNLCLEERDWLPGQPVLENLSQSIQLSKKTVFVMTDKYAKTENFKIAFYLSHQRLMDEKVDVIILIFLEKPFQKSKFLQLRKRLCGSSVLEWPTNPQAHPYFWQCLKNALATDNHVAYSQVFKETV
In short: (§1)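 Read-out is SEAP activity in HEK-Blue detection medium after 22 h at 37 °C, converted to percent inhibition against agonist-plus-DMSO and reference-inhibitor controls. Cells saw compound (0.05 nM–50 μM, 30 min, room temperature) before gardiquimod 7.5 μM, R848 15.9 μM or ODN2006 5 nM for TLR7, TLR8 and TLR9, respectively.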

[2] = molecular target: T2, human TLR9 (Homo sapiens, UniProt Q9NR96); experiment: TLR9 inhibition reporter assay (HEK-Blue cells, SEAP reporter, ODN2006 stimulation); conditions: HEK-Blue cells overexpressing human TLR9, SEAP reporter, ODN2006 5 nM
T2 construct: host or cells: HEK-Blue cells (HEK293-derived reporter line)
T2 sequence (Q9NR96 26-1032): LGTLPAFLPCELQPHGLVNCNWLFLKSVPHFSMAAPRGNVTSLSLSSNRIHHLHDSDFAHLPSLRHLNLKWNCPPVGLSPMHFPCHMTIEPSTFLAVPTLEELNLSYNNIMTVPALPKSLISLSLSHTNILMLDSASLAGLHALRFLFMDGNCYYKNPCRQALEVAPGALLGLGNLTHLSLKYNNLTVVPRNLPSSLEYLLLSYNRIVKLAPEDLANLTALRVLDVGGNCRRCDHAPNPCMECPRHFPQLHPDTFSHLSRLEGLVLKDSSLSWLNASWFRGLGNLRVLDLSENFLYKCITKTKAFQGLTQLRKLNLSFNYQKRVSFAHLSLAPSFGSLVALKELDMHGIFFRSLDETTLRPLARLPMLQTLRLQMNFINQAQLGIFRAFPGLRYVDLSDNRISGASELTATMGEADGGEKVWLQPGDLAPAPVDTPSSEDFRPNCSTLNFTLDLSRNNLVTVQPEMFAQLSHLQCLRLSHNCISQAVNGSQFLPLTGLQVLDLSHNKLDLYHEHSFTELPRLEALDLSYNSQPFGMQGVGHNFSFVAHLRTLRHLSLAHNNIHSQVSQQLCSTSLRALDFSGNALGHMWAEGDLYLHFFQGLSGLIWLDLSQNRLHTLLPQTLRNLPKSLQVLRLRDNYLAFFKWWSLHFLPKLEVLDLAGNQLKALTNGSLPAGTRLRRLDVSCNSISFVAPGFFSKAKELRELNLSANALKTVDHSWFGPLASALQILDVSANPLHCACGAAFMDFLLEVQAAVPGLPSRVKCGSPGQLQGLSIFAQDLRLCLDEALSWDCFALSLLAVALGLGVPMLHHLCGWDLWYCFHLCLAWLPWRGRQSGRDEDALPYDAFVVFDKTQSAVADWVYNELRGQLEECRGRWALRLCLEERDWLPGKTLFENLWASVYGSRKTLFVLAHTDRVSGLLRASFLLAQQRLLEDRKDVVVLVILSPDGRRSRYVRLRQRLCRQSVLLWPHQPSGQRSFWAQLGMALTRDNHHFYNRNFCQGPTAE
In short: as §1

[3] = molecular target: T3, human TLR8 (Homo sapiens, UniProt Q9NR97); experiment: TLR8 inhibition reporter assay (HEK-Blue cells, SEAP reporter, R848 stimulation); conditions: HEK-Blue cells overexpressing human TLR8, SEAP reporter, R848 15.9 μM
T3 construct: host or cells: HEK-Blue cells (HEK293-derived reporter line)
T3 sequence (Q9NR97 27-1041): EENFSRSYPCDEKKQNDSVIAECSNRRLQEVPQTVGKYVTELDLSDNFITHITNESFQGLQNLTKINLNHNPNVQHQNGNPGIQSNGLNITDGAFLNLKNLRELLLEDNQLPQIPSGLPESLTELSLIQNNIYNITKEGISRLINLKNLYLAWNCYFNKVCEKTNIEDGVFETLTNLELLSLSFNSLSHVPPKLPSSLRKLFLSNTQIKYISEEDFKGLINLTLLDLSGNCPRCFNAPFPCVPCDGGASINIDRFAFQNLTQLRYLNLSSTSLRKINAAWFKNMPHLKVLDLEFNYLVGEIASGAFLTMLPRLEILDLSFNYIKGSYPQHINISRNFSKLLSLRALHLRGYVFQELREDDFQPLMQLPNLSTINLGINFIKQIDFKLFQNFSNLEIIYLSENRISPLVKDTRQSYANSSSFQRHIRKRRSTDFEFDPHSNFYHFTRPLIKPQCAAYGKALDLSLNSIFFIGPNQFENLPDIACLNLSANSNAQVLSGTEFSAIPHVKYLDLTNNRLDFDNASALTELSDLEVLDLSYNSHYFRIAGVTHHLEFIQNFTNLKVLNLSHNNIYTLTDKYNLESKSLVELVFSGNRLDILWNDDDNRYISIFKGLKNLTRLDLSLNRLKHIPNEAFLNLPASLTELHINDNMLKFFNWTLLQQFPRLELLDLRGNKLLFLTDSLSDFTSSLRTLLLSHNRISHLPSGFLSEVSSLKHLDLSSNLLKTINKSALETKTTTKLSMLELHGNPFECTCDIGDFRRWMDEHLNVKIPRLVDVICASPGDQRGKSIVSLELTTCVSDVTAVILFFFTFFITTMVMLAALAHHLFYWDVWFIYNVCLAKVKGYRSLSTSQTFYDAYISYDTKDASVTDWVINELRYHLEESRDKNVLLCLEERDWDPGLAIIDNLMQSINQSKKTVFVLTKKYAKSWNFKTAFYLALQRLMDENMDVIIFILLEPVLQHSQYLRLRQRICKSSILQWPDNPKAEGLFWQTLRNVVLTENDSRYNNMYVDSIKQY
In short: as §1

Compound	IC50 [1] [µM]	IC50 [2] [µM]	IC50 [3] [µM]
CNC(=O)CN1CCC(c2ccc3[nH]c(-c4nn5ncnc5c(OC)c4C)c(C(C)C)c3c2)CC1 [Example 281, 2-(4-(3-isopropyl-2-(8-methoxy-7-methyl-[1,2,4]triazolo[1,5-b]pyridazin-6-yl)-1H-indol-5-yl)piperidin-1-yl)-N-methylacetamide]	< 0.1	1 to 50	< 0.1
CC(C)c1c(-c2ccnc3[nH]ncc23)[nH]c2cc(C(F)(F)F)c(C3CCNCC3)cc12 [Example 249, 4-(3-isopropyl-5-(piperidin-4-yl)-6-(trifluoromethyl)-1H-indol-2-yl)-1H-pyrazolo[3,4-b]pyridine]	< 0.1	1 to 50	0.1 to 1
CC(C)c1c(-c2ccnc3c2NC(=O)CO3)[nH]c2ccc(C3CCNCC3)cc12 [Example 68, 8-(3-isopropyl-5-(piperidin-4-yl)-1H-indol-2-yl)-1H-pyrido[2,3-b][1,4]oxazin-2(3H)-one]	1 to 50	1 to 50	1 to 50
Cc1cc(-c2[nH]c3ccc(C4CCN(C(=O)CN(C)C)CC4)cc3c2C(C)C)cn2ccnc12 [Example 528, 2-(dimethylamino)-1-(4-(3-isopropyl-2-(8-methylimidazo[1,2-a]pyridin-6-yl)-1H-indol-5-yl)piperidin-1-yl)ethan-1-one]	< 0.1	0.1 to 1	< 0.1
Cc1c(-c2[nH]c3ccc(C4CCN(CC(=O)N(C)C)CC4)cc3c2C(C)C)c2cccnc2n1C [Example 286, 2-(4-(2-(1,2-dimethyl-1H-pyrrolo[2,3-b]pyridin-3-yl)-3-isopropyl-1H-indol-5-yl)piperidin-1-yl)-N,N-dimethylacetamide]	< 0.1	1 to 50	< 0.1
CCc1c(-c2ccnc3[nH]ncc23)[nH]c2ccc(C3CCN(Cc4coc(C)n4)CC3)cc12 [Example 917, 4-((4-(3-ethyl-2-(1H-pyrazolo[3,4-b]pyridin-4-yl)-1H-indol-5-yl)piperidin-1-yl)methyl)-2-methyloxazole]	0.1 to 1	1 to 50	< 0.1
Cc1cc(-c2[nH]c3ccc(C4CCN(C(=O)[C@@H]5C[C@@H](O)CN5)CC4)cc3c2C(C)C)cc2nccn12 [Example 539, ((2S,4R)-4-hydroxypyrrolidin-2-yl)(4-(3-isopropyl-2-(5-methylimidazo[1,2-a]pyridin-7-yl)-1H-indol-5-yl)piperidin-1-yl)methanone]	1 to 50	1 to 50	1 to 50
Cc1c(-c2ccnc3cn[nH]c23)[nH]c2ccc(C3CCNCC3)cc12 [Example 55, 7-(3-methyl-5-(piperidin-4-yl)-1H-indol-2-yl)-1H-pyrazolo [4,3-b]pyridine]	0.1 to 1	1 to 50	1 to 50
Cc1nnn2ccc(-c3[nH]c4ccc(C5CCN(C6COC6)CC5)cc4c3C(C)C)cc12 [Example 743, 5-(3-isopropyl-5-(1-(oxetan-3-yl)piperidin-4-yl)-1H-indol-2-yl)-3-methyl-[1,2,3]triazolo[1,5-a]pyridine]	< 0.1	1 to 50	< 0.1
Cc1cc(-c2[nH]c3ccc(C4CCN(CC(=O)N(C)C)CC4)cc3c2C(C)C)cn2nnnc12 [Example 313, 2-(4-(3-isopropyl-2-(8-methyltetrazolo[1,5-a]pyridin-6-yl)-1H-indol-5-yl)piperidin-1-yl)-N,N-dimethylacetamide]	< 0.1	1 to 50	< 0.1
CC(C)c1c(-c2ccnc3[nH]ncc23)[nH]c2cc(C(F)(F)F)c(C3CCN(CC4CCN(C(C)C)C4)CC3)cc12 (stereo not drawn) [Example 854, 4-(3-isopropyl-5-(1-((1-isopropylpyrrolidin-3-yl)methyl)piperidin-4-yl)-6-(trifluoromethyl)-1H-indol-2-yl)-1H-pyrazolo[3,4-b]pyridine]	< 0.1	0.1 to 1	0.1 to 1
Cc1cc(-c2[nH]c3ccc(C4CCN(C(=O)CN(C)C)CC4)cc3c2C(C)C)nn2ncnc12 [Example 454, 2-(dimethylamino)-1-(4-(3-isopropyl-2-(8-methyl-[1,2,4]triazolo[1,5-b]pyridazin-6-yl)-1H-indol-5-yl)piperidin-1-yl)ethan-1-one]	< 0.1	1 to 50	< 0.1
COc1nc(-c2[nH]c3ccc(C4CCN(CC(=O)N(C)C)CC4)cc3c2C(C)C)cn2ncnc12 [Example 292, 2-(4-(3-isopropyl-2-(8-methoxy-[1,2,4]triazolo[1,5-a]pyrazin-6-yl)-1H-indol-5-yl)piperidin-1-yl)-N,N-dimethylacetamide]	< 0.1	1 to 50	< 0.1
Cc1cc(-c2[nH]c3ccc(C4CCN(CC(=O)N(C)C)CC4)cc3c2C(C)C)cc2cncn12 [Example 439, 2-(4-(3-isopropyl-2-(5-methylimidazo[1,5-a]pyridin-7-yl)-1H-indol-5-yl)piperidin-1-yl)-N,N-dimethylacetamide]	< 0.1	1 to 50	< 0.1
